Measured values from patent US20110207697A1, “XANTHOHUMOL COMPOSITIONS AND METHODS FOR TREATING SKIN DISEASES OR DISORDERS” (Betal, LLC, priority 2008, published 2011).
Values after ≈ are worked out from the molar mass of the structure shown.

Columns and labels:
[1] = system: S. epidermidis (ATCC 12228); assay: Antimicrobial susceptibility, broth dilution (MIC/MBC); assay type: cell-based, Staphylococcus epidermidis
Experimental: The antibacterial effects of seven hops components against five different strains of bacteria involved in primary or secondary skin and soft tissue infections was evaluated, with broth dilution methods. […] Antimicrobial susceptibility testing was performed using a broth dilution method. Gentamicin or ampicillin was used as a control to verify the methodology. A stock solution (20 mg/ml) of the test substance (or vehicle control) was prepared in dimethyl sulfoxide. Serial dilution was done in microwell plates. Reinforced Clostridial Medium was used for P. acnes (ATCC 6919). Three hundreds […] of the test substance was added to the test tube containing P. acnes (10^5 CFU/ml) in 2.7 ml of cultures grown under anaerobic conditions. Mueller-Hinston Broth suitable for culturing S. epidermidis (ATCC 12228), K. rhizophila (formerly M. luteus) (ATCC 9341), and S. aureus (ATCC […]), and Brain Heart Infusion Broth suitable for culturing S. pyogenes (ATCC 14289) were used. A total of […] of the test substance was added to the test tube containing the other microorganisms (10^5CFU/ml) in 0.9 ml of cultures grown under controlled conditions. […] Samples from those tubes that scored positive was plated onto an agar plate and incubated under controlled conditions.

[2] = Singlet oxygen absorbance capacity (SOAC)
Excerpt: [table] Alpha-tocopherol (vitamin E) was used as the calibration standard, and the SOAC result is expressed as mmol VtE/g. The higher the SOAC score, the higher the singlet oxygen-quenching capacity. […] Singlet oxygen has been postulated to be a highly reactive and toxic intermediate against skin. It is known that the acne-causing bacterium P. acnes naturally produces high amounts of intracellular porphyrins, mostly coproporphyrin (Ashkenazi et al. 2003). Singlet oxygen can be generated on the skin surface from P. acnes porphyrins under sunlight and induce serious skin damage ([…] et al. 1996 Biochem. Biophys. Res. Commun. 223: 578-582). Various skin disorders progress through a singlet oxygen-dependent mechanism, including acne, atopic dermatitis, and skin aging. Both hydrophilic and lipophilic oxygen radical absorbance capacity (ORAC) assays were carried out at Brunswick Laboratory (Wareham, Mass.) based on the modified ORACfl method reported by Ou et al. (2001 J. Agric. Food Chem. 49: 4619-4626, 2002 J. Agr. Food Chem. 50: 3122-3128). Trolox, a water-soluble vitamin E analog, was used as the calibration standard. The data are expressed as mmole of Trolox equivalents per gram (mmol TE/g). The acceptable precision of the ORAC assay is a 15% relative standard deviation. Caffeic acid was used as the calibration standard. Hydroxyl radical ORAC (HOR-AC) is expressed as mmole caffeic acid equivalent per gram (mmol CAE/g). Trolox was used as the calibration standard. The peroxyl nitrite ORAC (NORAC) result is expressed as mmol TE/g. Alpha-tocopherol (vitamin E) was used as the calibration standard, and the singlet oxygen absorbance capacity (SOAC) result is expressed as mmole a-tocopherol equivalent (mmol VtE) per gram (Aubry et al. 1989). […] Radical-scavenging activity was measured by the change in absorbance at 517 nm with the DPPH result expressed as mmol TE/g. […] The FRAP result is expressed as mmol TE/g (Ou et al. 2002b). Superoxide dismutase (SOD) was used as a calibration standard; the SOD result is expressed as kilo unit SOD equivalent (kunitSODeq) per gram.

For `COc1cc(O)c(CC=C(C)C)c(O)c1C(=O)/C=C/c1ccc(O)cc1` [Xanthohumol (7), 3′-[3,3-dimethylallyl]-2′,4′,4-trihydroxy-6′-methoxychalcone], the MBC [1] was “[10] g/mL”, the MIC ([1]; 1 day) was 3 µg/mL (≈ 8.46 µM) and the MIC ([1]; Staphylococcus epidermidis, ATCC12228) was 1000 µg/mL (≈ 2820 µM). The “SOAC value, times higher than that of vitamin E or Polyphenon 60” value [2] was 8-15 times and the “SOAC (Vitamin E equivalent)” value ([2]; expressed as mmol VtE/g) was 14.1 Vitamin E equivalent.
